# “And” between values parts separate entries of the source, which are not always exact repeats. Identical values can stand only once.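 The compound was tested at five concentrations on cells cultured in 96-well plates, with a 48-hour exposure period. Here, GI50 denotes the concentration required for 50% inhibition of growth. TGI: concentration producing complete growth inhibition.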
# Assays:
# Experiment in all cases: NCI anticancer screen, dose series, 48 h
# SK-MEL-2 melanoma = test system: SK-MEL-2 melanoma
# RXF 393 renal = test system: RXF 393 renal
# COLO 205 colon = test system: COLO 205 colon
# KM12 colon = test system: KM12 colon
# IGROV1 ovarian = test system: IGROV1 ovarian
# UACC-62 melanoma = test system: UACC-62 melanoma
# T-47D breast = test system: T-47D breast
# HS 578T breast = test system: HS 578T breast
# NCI-H23 lung = test system: NCI-H23 lung
# MDA-MB-435 = test system: MDA-MB-435
SMILES,TGI (SK-MEL-2 melanoma),TGI (RXF 393 renal),TGI (COLO 205 colon) [µM],TGI (KM12 colon) [µM],TGI (IGROV1 ovarian),TGI (UACC-62 melanoma),GI50 (SK-MEL-2 melanoma) [µM],GI50 (T-47D breast) [µM],TGI (T-47D breast) [µM],GI50 (COLO 205 colon) [µM],GI50 (HS 578T breast) [µM],TGI (HS 578T breast) [µM],GI50 (KM12 colon) [µM],GI50 (UACC-62 melanoma) [µM],GI50 (NCI-H23 lung) [µM],TGI (NCI-H23 lung) [µM],GI50 (RXF 393 renal) [µM],GI50 (IGROV1 ovarian) [µM],TGI (MDA-MB-435) [µM],GI50 (MDA-MB-435) [µM]
CCOC(=O)CN(Cn1cncn1)Cn1cncn1,> 100 µM,36 µM,> 100,44.6,> 100 µM,> 100 µM,,,,,,,,,,,,,,
COc1ccc2c(c1OC)-c1c(c3ccc([N+](=O)[O-])cc3c(=O)n1CCCBr)C2=O,> 100 µM,,> 100,> 100,,76.1 µM,> 100,97.3,> 100,> 100,70.6,> 100,> 100,18.1,,,,,,
[O-]c1ccccc1C=Nc1ccc2c(c1)CCC2.[O-]c1ccccc1C=Nc1ccc2c(c1)CCC2.[O]=[U+2]=[O],> 100 µM,> 100 µM,> 100,> 100,> 100 µM,> 100 µM,> 100,,,55.2,,,> 100,> 100,> 100,> 100,> 100,41,,
COC(=O)C1C(=O)CC2CCCCC21 (stereo not given),> 100 µM,> 100 µM,> 100,> 100,> 100 µM,> 100 µM,,,,,,,,,,,,,,
O=c1cc(-c2ccc(O)cc2)oc2cc(O[C@@H]3O[C@H](CO)[C@@H](O)[C@H](O)[C@H]3O)cc(O)c12,> 100 µM,,> 100,> 100,> 100 µM,> 100 µM,,,> 100,,,> 100,,,,> 100,,,> 100,
Cc1ccc(Oc2ccccc2N)cc1,> 100 µM,> 100 µM,19.2,> 100,> 100 µM,> 100 µM,,,,,,,,,,> 100,,,,
CCC(C)Oc1nc2c(c(=O)n(C)c(=O)n2C)n1C (stereo not given),> 100 µM,> 100 µM,> 100,> 100,> 100 µM,> 100 µM,> 100,> 100,> 100,> 100,,,> 100,> 100,> 100,> 100,> 100,> 100,> 100,> 100
COc1ccc(OC(C(=O)O)C(C)C)c2c1CCCC2=O (stereo not given),> 100 µM,,> 100,> 100,> 100 µM,> 100 µM,,,,,,,,,,> 100,,,,
N#C/C(=C\c1cccc(O)c1O)C(N)=O,> 100 µM,28 µM,77.7,> 100,> 100 µM,> 100 µM,,,,,,,,,,> 100,,,,
CNc1ccc2ncccc2c1[N+](=O)[O-],> 100 µM,> 100 µM,,> 100,> 100 µM,> 100 µM,,,,,,,,,,> 100,,,,
COc1ccc(-c2cc(C(=O)Nc3cc(C(F)(F)F)cc(C(F)(F)F)c3)c3ccccc3n2)cc1,30.6 µM,21 µM,28.4,35.1,44.9 µM,> 100 µM,,,,,,,,,,19.2,,,,
CCc1cccc(C)c1N1C(=O)C(=O)C(c2nc3ccccc3o2)C(=O)C1=O,> 100 µM,,> 100,> 100,> 100 µM,> 100 µM,,,,,,,,,,> 100,,,,
CC(C)(O)/C=C/C(=O)[C@](C)(O)[C@H]1[C@H](O)C[C@@]2(C)[C@@H]3CC=C4[C@@H](C[C@H](O)C(=O)C4(C)C)[C@]3(C)C(=O)C[C@]12C,0.0829 µM and 0.131 µM,0.408 µM and 0.263 µM,,25,0.479 µM and 1.22 µM,0.947 µM and 2.44 µM,0.0294,,,0.0919,,,0.948,0.0736,0.462,15.5,0.187,0.211,,
C#CCNC(=O)NCCCCC(NC(=O)OCc1ccccc1)C(=O)OCc1ccccc1 (stereo not given),> 100 µM,> 100 µM,32.8,69.8,> 100 µM,> 100 µM,,,,,,,,,,> 100,,,,
COC(=O)C1=C(CS(=O)c2ccc([N+](=O)[O-])cc2[N+](=O)[O-])C2C=CC1C2 (stereo not given),> 100 µM,52.1 µM,41.5,> 100,> 100 µM,42.2 µM,,,,,,,,,,98.9,,,,
CN(Cc1ccc(C(F)(F)F)cc1)CC(O)C(=O)Nc1ccc(Cl)cc1 (stereo not given),3.62 µM,2.96 µM,3.46,2.97,3.04 µM,3.13 µM,1.93,1.38,2.87,1.86,,,1.54,1.64,1.32,2.69,1.51,1.46,3,1.52
C[Si](C)(C)C(CCCCSc1ccccc1)(Sc1ccccc1)Sc1ccccc1,> 100 µM,> 100 µM,> 100,> 100,,> 100 µM,,,,,,,,,,> 100,,,,

# Reference: PubChem BioAssay (NCI)
